Results from patent publication US11730720B2, “ALK5 inhibitors” (THERAVANCE BIOPHARMA R&D IP, LLC, priority 2018, dated 2023).

How the values were obtained:
[1] = molecular target: T1, recombinant human ALK5 (TGF-βR1) protein (Homo sapiens, UniProt P36897); experiment: Biochemical ALK5 (TGF-βR1) assay to measure pKi (LANCE Ultra ULight kinase assay); conditions: apparent pKi, converted from pIC50 using the Cheng-Prusoff equation
T1 construct: purchased Life Technologies PR9075A
T1 sequence (P36897 34-503): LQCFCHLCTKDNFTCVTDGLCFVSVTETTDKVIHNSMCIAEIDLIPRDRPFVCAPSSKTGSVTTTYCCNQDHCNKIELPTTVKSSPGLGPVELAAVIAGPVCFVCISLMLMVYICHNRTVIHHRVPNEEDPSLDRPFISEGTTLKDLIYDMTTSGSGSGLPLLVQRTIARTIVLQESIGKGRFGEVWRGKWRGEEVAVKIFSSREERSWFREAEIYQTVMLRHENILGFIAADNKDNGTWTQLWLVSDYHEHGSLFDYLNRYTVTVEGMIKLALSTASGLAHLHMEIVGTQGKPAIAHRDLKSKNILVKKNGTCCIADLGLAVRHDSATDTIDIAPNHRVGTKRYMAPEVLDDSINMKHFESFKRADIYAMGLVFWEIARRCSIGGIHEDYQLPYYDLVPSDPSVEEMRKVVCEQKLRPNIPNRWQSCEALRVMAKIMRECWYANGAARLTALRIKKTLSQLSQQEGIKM
Protocol: Example 254: Biochemical ALK5 (TGF-βR1) Assay to Measure pKi
The assays were performed in a 384-well plate (24 columns×16 wells/rows). An Echo® 550 Liquid Handler (Labcyte) was used to prepare various intermediate concentrations of compounds of the present disclosure in 100% DMSO. From the intermediate concentrations, a range of concentrations (from 10 μM to 25 pM corresponding to volumes up to 105 nL) were prepared and ejected into a final assay plate to be used to create individual dose response curves for each of the subject compounds. To a separate column within the assay plate, 105 nL of DMSO in each well was used to establish a maximum assay signal. Additionally, 105 nL of 100 μM SD-208, a selective TGF-βR1 inhibitor (Catalog #S7624, Selleck Chemicals), was used in another column of wells to establish a minimal assay signal.
With a multidrop dispenser, 8 μL of enzyme mixture (1.25× final) was added to each well. The enzyme mixture consisted of 250 pM ALK5 enzyme and 62.5 nM peptide substrate (LANCE® (lanthanide chelate excite) Ultra ULight™-DNA Topoisomerase 2-alpha (Thr1342)) prepared in assay buffer (50 mM HEPES, 10 mM MgCl2, 1 mM EGTA, 0.01% Tween-20, pH 7.5 at room temperature) with 2 mM DTT added prior to use. The plate was then sealed with an adhesive seal and allowed to equilibrate for 60 minutes at room temperature.
Next, 2 μL of 125 μM ATP (5× final, 125 μM ATP prepared in assay buffer with 2 mM DTT) was added to the incubated mixtures, covered with a MicroClime® Environmental Lid (Product No. LLS-0310, Labcyte) and immediately transferred to 37° C. The reactions were allowed to proceed at 37° C. for 60 minutes before terminating with the addition of 10 μL of detection antibody (LANCE® (lanthanide chelate excite) Ultra Europium-anti-phospo-DNA Topoisomerase 2-alpha (Thr1342)) in detection mixture (12 mM EDTA, 4 nM detection antibody prepared in detection buffer (50 mM Tris-HCl, 150 mM NaCl, 0.5% BSA (Fraction V), pH 7.0)) at room temperature. The plate was then read on a Perkin Elmer EnVision Plate Reader using europium specific reader settings with excitation and emission wavelengths set to 320 or 340 nm and 665 nm, respectively.
For dose-response analyses, percent inhibition versus compound concentrations were plotted, and pIC50 values were determined from a 4-parameter robust fit model with GraphPad Prism V5 Software (GraphPad Software, Inc., La Jolla, Calif.). This model obtains pIC50 values by fitting the sigmodial dose-response (variable slope) equation to the data. Results were expressed as pIC50 (negative logarithm of IC50) and subsequently converted to pKi (negative logarithm of dissociate constant, K) using the Cheng-Prusoff equation.
The higher the value of pKi (lower value of Ki), the greater the inhibition of ALK5 activity.

[2] = system: TGF-β-stimulated SMAD3 phosphorylation in BEAS-2B cells; experiment: Cellular ALK5 potency assay, inhibition of TGF-β stimulated pSMAD3 formation in BEAS-2B cells; assay type: cell-based; conditions: Homo sapiens, inhibition of TGF-β (10 ng/mL) stimulated pSMAD3 formation, 1 hour compound incubation, read-out: BEAS2B pIC50 (converted)
Protocol: Example 255: Cellular ALK5 Potency Assay to Measure pIC50, Inhibition of TGF-β Stimulated pSMAD3 Formation in BEAS-2B Cells
The potency of compounds of the present disclosure for inhibition of TGF-β-stimulated SMAD3 phosphorylation was measured in BEAS-2B cells, a human lung epithelial cell line. TGF-β signals through activin receptor-like kinase 5 (ALK5) immediately prior to SMAD3 phosphorylation.
BEAS-2B cells were grown using 50% DMEM (Life Technologies) and 50% F-12 (Life Technologies) media, supplemented with 10% Fetal Bovine Serum (ATCC), 25 mM HEPES (Life Technologies), and 1×Pen-Strep (Life Technologies). Cells were cultured in a humidified incubator set at 37° C., 5% CO2, and trypsonized using 0.25% Trypsin with 0.5% polyvinylpyrrolidone (PVP).
For the assay, BEAS-2B cells were seeded at 7,500 cells/well (25 μL/well) in a 384-well plate and cultured overnight. Before dosing, growth media was aspirated and the wells were rinsed with HBSS Buffer (HBSS with Calcium and Magnesium, Life Technologies) supplemented with 25 mM HEPES (Life Technologies) and 1% Bovine Serum Albumin (Roche). Compounds were serially diluted in DMSO, then further diluted with supplemented HBSS Buffer (50 μL/well) to create a compound plate 3× of the final assay concentration, at 0.3% DMSO. The diluted compounds were then added to the cells (8 μL/well) and incubated at 37° C., 5% CO2 for 1 hour. After the compound incubation, TGF-β (R&D Systems) reconstituted in supplemented HBSS Buffer was added to the cells ([…], final concentration 10 ng/mL) and incubated for a further 30 minutes, after which the cells were immediately lysed with AlphaLISA lysis buffer (PerkinElmer). AlphaLISA Acceptor and Detector beads (PerkinElmer) were added 2 hours apart, then incubated overnight to be read the next day. The potency of the compound was determined through analysis of dose-dependent quantified changes in pSMAD3 signal from baseline (non-compound treated TGF-β stimulated cells). Data are expressed as pIC50 (negative decadic logarithm IC50) values.

Structure (SMILES) | Ki [1] [nM] | IC50 [2] [nM]
CN1CC2CN(c3cnc4ccc(-c5c[nH]nc5-c5cc(Cl)ccc5F)nc4c3)CC21 (stereo not drawn) [Compound 1-74, 2-[3-(5-chloro-2-fluoro-phenyl)-1H-pyrazol-4-yl]-7-(6-methyl-3,6-diazabicyclo[3.2.0]heptan-3-yl)-1,5-naphthyridine] | 0.398 to 3.16 | 25.1 to 158
Fc1ccc(Cl)cc1-c1n[nH]cc1-c1ccc2ncc(-c3nc(C(F)(F)F)n4c3CNCC4)cc2n1 [Compound 1-119, 2-[3-(5-chloro-2-fluoro-phenyl)-1H-pyrazol-4-yl]-7-[3-(trifluoromethyl)-5,6,7,8-tetrahydroimidazo[1,5-a]pyrazin-1-yl]-1,5-naphthyridine] | 0.398 to 3.16 | 25.1 to 158
CN(C)C1CCN(c2cnc3ccc(-c4c[nH]nc4-c4cc(Cl)ccc4F)nc3c2)C1 (racemic) [Compound 1-34, rac-(3S)-1-[6-[3-(5-chloro-2-fluoro-phenyl)-1H-pyrazol-4-yl]-1,5-naphthyridin-3-yl]-N,N-dimethyl-pyrrolidin-3-amine] | ≤ 0.0316 | 25.1 to 158
Fc1ccc(Cl)cc1-c1n[nH]cc1-c1ccc2ncc(-c3ncc4n3CCNC4)cc2n1 [Compound 1-114, 2-[3-(5-chloro-2-fluoro-phenyl)-1H-pyrazol-4-yl]-7-(5,6,7,8-tetrahydroimidazo[1,5-a]pyrazin-3-yl)-1,5-naphthyridine] | 0.0398 to 0.316 | 25.1 to 158
Fc1ccc(Cl)cc1-c1n[nH]cc1-c1ccc2ncc(N3CCn4nc(N5CCNCC5)cc4C3)cc2n1 [Compound 1-128, 2-[3-(5-chloro-2-fluoro-phenyl)-1H-pyrazol-4-yl]-7-(2-piperazin-1-yl-6,7-dihydro-4H-pyrazolo[1,5-a]pyrazin-5-yl)-1,5-naphthyridine] | 0.0398 to 0.316 | 200 to 1260
CNC1CCN(c2cnc3ccc(-c4c[nH]nc4-c4cc(Cl)ccc4F)nc3c2)CC1 [Compound 1-60, 1-[6-[3-(5-chloro-2-fluoro-phenyl)-1H-pyrazol-4-yl]-1,5-naphthyridin-3-yl]-N-methyl-piperidin-4-amine] | 0.0398 to 0.316 | 25.1 to 158
CN(C)C(=O)[C@H]1CN(c2cnc3ccc(-c4c[nH]nc4-c4cc(Cl)ccc4F)nc3c2)CCN1 [Compound 1-61, (2R)-4-[6-[3-(5-chloro-2-fluoro-phenyl)-1H-pyrazol-4-yl]-1,5-naphthyridin-3-yl]-N,N-dimethyl-piperazine-2-carboxamide] | 0.398 to 3.16 | 25.1 to 158
NC(=O)C1CN(c2cnc3ccc(-c4c[nH]nc4-c4cc(Cl)ccc4F)nc3c2)CCN1 (racemic) [Compound 1-50, rac-(2S)-4-[6-[3-(5-chloro-2-fluoro-phenyl)-1H-pyrazol-4-yl]-1,5-naphthyridin-3-yl]piperazine-2-carboxamide] | 0.398 to 3.16 | 25.1 to 158
CNC(=O)C1CN(c2cnc3ccc(-c4c[nH]nc4-c4cc(Cl)ccc4F)nc3c2)CCN1C (racemic) [Compound 1-81, rac-(2S)-4-[6-[3-(5-chloro-2-fluoro-phenyl)-1H-pyrazol-4-yl]-1,5-naphthyridin-3-yl]-N,1-dimethyl-piperazine-2-carboxamide] | 0.398 to 3.16 | –

Further lines, with some results ahead:

Ki [1] [nM] | Structure (SMILES) | IC50 [2] [nM]
0.0398 to 0.316 | CC(C)(C)N1CCN(CCNc2cnc3ccc(-c4c[nH]nc4-c4cc(Cl)c(F)cc4F)nc3c2)CC1 [Compound 6-13, N-(2-(4-(tert-butyl)piperazin-1-yl)ethyl)-6-(3-(5-chloro-2,4-difluorophenyl)-1H-pyrazol-4-yl)-1,5-naphthyridin-3-amine] | 25.1 to 158
0.0398 to 0.316 | Fc1cc(F)c(-c2[nH]cnc2-c2ccc3ncc(NCCN4CCNCC4)cc3n2)cc1Cl [Compound 7-1, 6-(5-(5-chloro-2,4-difluorophenyl)-1H-imidazol-4-yl)-N-(2-(piperazin-1-yl)ethyl)-1,5-naphthyridin-3-amine] | 25.1 to 158
0.0398 to 0.316 | Fc1cc(F)c(-c2n[nH]cc2-c2ccc3ncc(-c4cnn(CC5CNC5)c4)cc3n2)cc1Cl [Compound 6-42, 7-[1-(azetidin-3-ylmethyl)pyrazol-4-yl]-2-[3-(5-chloro-2,4-difluoro-phenyl)-1H-pyrazol-4-yl]-1,5-naphthyridine] | 25.1 to 158
0.0398 to 0.316 | Fc1cc(F)c(-c2n[nH]cc2-c2ccc3ncc(-c4cn5c(n4)CNCC5)cc3n2)cc1Cl [Compound 6-52, 2-[3-(5-chloro-2,4-difluoro-phenyl)-1H-pyrazol-4-yl]-7-(5,6,7,8-tetrahydroimidazo[1,2-a]pyrazin-2-yl)-1,5-naphthyridine] | 25.1 to 158
0.0398 to 0.316 | N[C@@H]1CCCC[C@H]1n1cc(-c2cnc3ccc(-c4nc[nH]c4-c4cc(Cl)c(F)cc4F)cc3c2)cn1 [Compound 7-7, (1R,2R)-2-[4-[6-[5-(5-chloro-2,4-difluoro-phenyl)-1H-imidazol-4-yl]-3-quinolyl]pyrazol-1-yl]cyclohexanamine] | 25.1 to 158
3.98 to 31.6 | CCOC(=O)[C@H]1CN(c2cnc3ccc(-c4nc[nH]c4-c4cc(Cl)ccc4F)nc3c2)CCN1 [Compound 2-38, ethyl (2R)-4-[6-[5-(5-chloro-2-fluoro-phenyl)-1H-imidazol-4-yl]-1,5-naphthyridin-3-yl]piperazine-2-carboxylate] | 25.1 to 158
0.398 to 3.16 | CN1CCN(C2CCN(c3cnc4ccc(-c5c[nH]nc5-c5ccc(F)c(F)c5)nc4c3)CC2)CC1 [Compound 8-3, 2-(3-(3,4-difluorophenyl)-1H-pyrazol-4-yl)-7-(4-(4-methylpiperazin-1-yl)piperidin-1-yl)-1,5-naphthyridine] | 25.1 to 158
0.398 to 3.16 | CNC(=O)[C@@H]1CN(c2cnc3ccc(-c4c[nH]nc4-c4cc(Cl)c(F)cc4F)nc3c2)CCN1 [Compound 6-26, (2S)-4-[6-[3-(5-chloro-2,4-difluoro-phenyl)-1H-pyrazol-4-yl]-1,5-naphthyridin-3-yl]-N-methyl-piperazine-2-carboxamide] | 25.1 to 158
